Entries after “also recorded” stand apart in the source; their conditions may differ. Residues, ends and D or L forms follow the SMILES beside them.
Columns and labels:
DocSTm [1] = test: Differential scanning fluorimetry (thermal stabilisation of Doc); format: binding, S. Typhimurium; conditions: for melting temperature shift ΔTm: DSF, DocSTm 5 μM, analyte 50 μM, Tm with analyte minus Tm of free DocSTm (42.9 ± 0.9 °C), SYPRO Orange, 20 mM K2HPO4, 50 mM (NH4)2SO4, pH 8.0, triplicate; for Average Tm: average of 3 replicates
Description: Experiments were performed in a Mx3005P qPCR System (Agilent) collecting fluorescence data with a temperature ramp of 25 to 95 °C. Samples were prepared in a buffer containing 20 mM K2HPO4 and 50 mM (NH4)2SO4 at pH 8.0. The SYPRO Orange dye (Sigma-Aldrich, 5000× stock in DMSO) was used to monitor protein denaturation and was diluted to a final concentration of 3×. For binding experiments, the final concentration of Doc was 5 μM. Each condition was performed in triplicate (ESI section 4) and the melting curves were plotted using GraphPad Prism 5 (GraphPad Software, U.S.A.). The melting temperatures were obtained by fitting the sigmoidal section of the curves to a Boltzmann sigmoid function.

DocSTm [2] = test: Surface plasmon resonance binding to immobilised Doc; design: species or system S. Typhimurium; conditions: for fold decrease in affinity (given as decrease/loss in Kd) compared with peptide 1: SPR Kd relative to wild-type peptide 1; for koff × 10^-6 / kon × 10^6: 1:1 kinetic fit, mean ± SD of at least 3 replicates; for kon × 10^6: single-cycle kinetics (multicycle for PhdSTm1-73); for Half-life of the complex: t1/2 = ln2 / koff
Description: Experiments were performed in a Biacore S200 (Cytiva) with a Series S sensor chip NTA (Cytiva). The data was analyzed using the Biacore Evaluation Software (Cytiva) and curves were plotted using GraphPad Prism 5 (GraphPad Software, U.S.A.). All experiments were performed at 22 °C with a running buffer containing 10 mM HEPES, 500 mM NaCl, 50 μM EDTA, and 0.005% (v/v) TWEEN 20 at pH 8.0. The surface was conditioned following the standard manufacturer’s guidelines and protein immobilization was performed with a 30–60 s pulse (flow rate of 5 μL/min) of Doc (150 nM) in running buffer. […] Surface regeneration was performed with a 1 min pulse of 0.5 M imidazole followed by a 1 min pulse of 0.35 M of EDTA at pH 8.0.
Binding to Doc was performed using a multicycle kinetics (MCK) setup for peptides 7, 10, and 14, while the remaining samples were tested using a single-cycle kinetics (SCK) setup. The surface was fully regenerated in between each analyte in both cases. In the MCK experiments, increasing concentrations of each analyte were injected with an 80 s pulse (30 μL/min) and dissociation times varied depending on the time required to fully dissociate the complex. The double-referenced sensorgrams (raw data subtracted from a blank injection and reference surface responses) were analyzed using a kinetic and/or a steady-state 1:1 binding model. In the SCK experiments, typically six concentrations of each analyte were sequentially injected with 80 s pulses (30 μL/min), and dissociation times varied depending on the time required to dissociate at least 5% of the complex. The double-referenced sensorgrams were fitted using a kinetic 1:1 binding model.
At least three independent replicates were measured for each analyte (ESI section 5). When a steady-state fit was applied, the reported Kd and its uncertainty correspond, respectively, to the average and standard deviations of the Kd obtained in each measurement. When a kinetic fit was applied, the reported rate constants (kon and koff) and their uncertainties correspond, respectively, to the average and standard deviations of the rate constants obtained in each measurement. In this case, reported Kd were calculated using the equation below, and the standard deviation of the rate constants was propagated. [drawing 1]

[3] = test system: S. Typhimurium (14028) Δphd-doc::Km strains coexpressing DocSTm; test: Growth rescue experiment in S. Typhimurium; format: cell-based; conditions: coexpression of DocSTm (pBAD33, arabinose) and Phd construct (pCA24N, basal expression); OD600 over time, M9 minimal medium; average of three independent experiments
Description: The cotransformations above were also performed with an empty pBAD33 plasmid, as a control for the absence of DocSTm expression.
For the growth rescue experiment, overnight (1% tryptone, 0.5% yeast extract, 0.5% NaCl, 1% glucose, 100 μg/mL of carbenicillin, and 34 μg/mL of chloramphenicol) cultures of the generated S. Typhimurium strains were diluted to an OD600 of approximately 0.006 into fresh M9 minimal medium supplemented with 0.5% or 1% arabinose, 0.4% glycerol, 0.4% casamino acids, 100 μg/mL of carbenicillin, and 34 μg/mL of chloramphenicol. Cell growth at a given time was monitored at OD600 with a Genesys 140 Visible Spectrophotometer (Thermo Scientific).

DocSTm [4] = test: Dot blot phosphorylation assay (EF-Tu phosphorylation by Doc); format: biochemical, S. Typhimurium; conditions: α-pThr, DocSTm 1 μM, EF-TuSTm 3 μM, ATP 1 mM, inhibitor 10 μM to 5 nM (3-fold dilutions), 16 h at RT
Description: Samples were prepared to a final volume of 10 μL. […] Samples were incubated for 16 h at RT and subsequently spotted on a nitrocellulose membrane. Phosphorylated EF-Tu was detected by immunodecoration using a rabbit monoclonal antiphosphothreonine antibody (Abcam, ab218195) at 1:2000 dilution (1 h at 4 °C), followed by incubation with a goat antirabbit IgG (H+L) HRP conjugate antibody (Advansta) at 1:10 000 dilution (1 h at RT). Chemiluminescence was developed using the HRP Luminata kit (Merck, WBLUR0100) and captured by an ImageQuant LAS4000 Western blot imaging system (Cytiva).

[5] = DocSTm 5 µM + 50 µM binder, replicate 1
[6] = DocSTm 5 µM + 50 µM binder, replicate 2
[7] = DocSTm 5 µM + 50 µM binder, replicate 3
[8] = SPR, kinetic fit, KD calculated from mean koff and kon, SD propagated, 22 °C, pH 8.0

Row | Molecule | melting temperature shift ΔTm (DocSTm [1]) [°C] | Average Tm (DocSTm [1]; DocSTm 5 µM + 50 µM binder) [°C] | Tm (DocSTm [1]; [5]) [°C] | Tm (DocSTm [1]; [6]) [°C] | Tm (DocSTm [1]; [7]) [°C] | fold decrease in affinity (given as decrease/loss in Kd) compared with peptide 1 (DocSTm [2]) [fold] | inhibition of EF-TuSTm phosphorylation by DocSTm (in words) (DocSTm [4]) | Kd (DocSTm [2]; SPR kinetic fit, replicate 1) [nM] | Kd (DocSTm [2]; SPR kinetic fit, replicate 2) [nM] | Kd (DocSTm [2]; SPR kinetic fit, replicate 3) [nM] | koff × 10^-6 (DocSTm [2]; SPR, 22 °C, pH 8.0) | kon × 10^6 (DocSTm [2]; SPR, 22 °C, pH 8.0) | Kd (DocSTm [2]; [8]) [nM] | Half-life of the complex (DocSTm [2]) [min] | further results
1 | CSCC[C@H](NC(=O)[C@H](C)NC(=O)[C@H](C)NC(=O)[C@H](C)NC(=O)[C@H](Cc1ccccc1)NC(=O)[C@H](CCC(=O)O)NC(=O)[C@H](CC(=O)O)NC(=O)[C@H](CC(=O)O)NC(=O)[C@H](CCSC)NC(=O)[C@H](Cc1c[nH]c2ccccc12)NC(C)=O)C(=O)N[C@@H](C)C(=O)N[C@H](C(=O)N[C@@H](Cc1c[nH]cn1)C(=O)NCC(=O)N[C@@H](CC(N)=O)C(=O)N[C@@H](CCC(=O)O)C(=O)N[C@@H](CC(C)C)C(=O)N[C@@H](CCCNC(=N)N)C(=O)N[C@@H](CCC(=O)O)C(=O)N[C@@H](CC(C)C)C(=O)N[C@@H](C)C(=O)N[C@@H](CC(=O)O)C(=O)N[C@@H](CCCCN)C(=O)O)C(C)C [peptide 7] (Ac-WMDDEFAAAMAVHGNELRELADK-OH; C-terminus assumed) | 15.5 ± 1.5 | 58.4 ± 1.2 | 59.7 | 57.7 | 57.6 | ~300 |  |  |  |  |  |  |  |  | Kd (DocSTm [2]; SPR multicycle, steady-state fit, replicate 1): 25.4 ± 3 nM; Kd (DocSTm [2]; SPR multicycle, steady-state fit, replicate 2): 19.4 ± 2.2 nM; Kd (DocSTm [2]; SPR multicycle, steady-state fit, replicate 3): 15.1 ± 0.09 nM; Kd (DocSTm [2]; SPR, multicycle kinetics, steady-state 1:1 fit, mean ± SD of 3 replicates): 19.9 ± 5.18 nM; rescue of Salmonella growth from DocSTm-induced growth inhibition (in words) [3]: unable to rescue growth
2 | CC[C@H](C)[C@H](NC(=O)[C@H](C)NC(=O)[C@H](C)NC(=O)[C@H](Cc1ccccc1)NC(=O)[C@H](CCC(=O)O)NC(=O)[C@H](Cc1c[nH]c2ccccc12)NC(C)=O)C(=O)N[C@@H](CCSC)C(=O)N[C@@H](C)C(=O)N[C@H](C(=O)N[C@@H](Cc1c[nH]cn1)C(=O)NCC(=O)N[C@@H](CC(N)=O)C(=O)N[C@@H](CCC(=O)O)C(=O)N[C@@H](CC(C)C)C(=O)N[C@@H](CCCNC(=N)N)C(=O)N[C@@H](CCC(=O)O)C(=O)N[C@@H](CC(C)C)C(=O)N[C@@H](C)C(=O)N[C@@H](CC(=O)O)C(=O)N[C@@H](CCCCN)C(=O)O)C(C)C [peptide 21] (Ac-WEFAAIMAVHGNELRELADK-OH; N-terminus and C-terminus assumed) | 19.3 ± 0.9 | 62.2 ± 0.2 | 62.3 | 62.0 | 62.4 |  | inhibition of DocSTm comparable to 1 | 0.41 | 0.412 | 0.365 | 496 ± 58 ×10^-6 s-1 | 1.252 ± 0.080 ×10^6 M-1 s-1 | 0.396 ± 0.052 | 23.4 ± 3 | 
3 | CC[C@H](C)[C@H](NC(=O)[C@H](C)NC(=O)[C@H](C)NC(=O)[C@H](Cc1ccccc1)NC(=O)[C@H](CCC(=O)O)NC(=O)[C@H](Cc1c[nH]c2ccccc12)NC(C)=O)C(=O)N[C@@H](CCSC)C(=O)N[C@@H](C)C(=O)N[C@H](C(=O)N[C@@H](Cc1c[nH]cn1)C(=O)NCC(=O)N[C@@H](CC(N)=O)C(=O)N[C@@H](CCC(=O)O)C(=O)N[C@@H](CC(C)C)C(=O)N[C@@H](CCCNC(=N)N)C(=O)N[C@@H](CCC(=O)O)C(=O)N[C@@H](CC(C)C)C(=O)N[C@@H](C)C(=O)O)C(C)C [peptide 22] (Ac-WEFAAIMAVHGNELRELA-OH; N-terminus and C-terminus assumed) | 16.3 ± 0.9 | 59.2 ± 0.3 | 58.89 | 59.16 | 59.42 |  | severe loss of inhibitory activity; also recorded: poor DocSTm inhibitors | 0.342 | 0.336 | 0.365 | 503 ± 16 ×10^-6 s-1 | 1.449 ± 0.085 ×10^6 M-1 s-1 |  | 22.8 ± 0.6 | 
4 | CC[C@H](C)[C@H](NC(=O)[C@H](C)NC(=O)[C@H](C)NC(=O)[C@H](Cc1ccccc1)NC(=O)[C@H](Cc1c[nH]c2ccccc12)NC(C)=O)C(=O)N[C@@H](CCSC)C(=O)N[C@@H](C)C(=O)N[C@H](C(=O)N[C@@H](Cc1c[nH]cn1)C(=O)NCC(=O)N[C@@H](CC(N)=O)C(=O)N[C@@H](CCC(=O)O)C(=O)N[C@@H](CC(C)C)C(=O)N[C@@H](CCCNC(=N)N)C(=O)N[C@@H](CCC(=O)O)C(=O)N[C@@H](CC(C)C)C(=O)O)C(C)C [peptide 23] (Ac-WFAAIMAVHGNELREL-OH; N-terminus and C-terminus assumed) | 7.9 ± 1.0 | 50.7 ± 0.3 | 50.54 | 50.60 | 51.08 | 30 | inactive in all concentrations tested; also recorded: poor DocSTm inhibitors | 1.85 | 1.94 | 2.18 | 2794 ± 42 ×10^-6 s-1 | 1.413 ± 0.136 ×10^6 M-1 s-1 | 1.98 ± 0.193 | 4.14 ± 0.06 | 
5 | Ac-WNELRELADK-OH [compound 25] | 1.3 ± 0.9 | 44.2 ± 0.1 | 44.1 | 44.2 | 44.4 |  | inactive |  |  |  |  |  |  |  | Average Tm (DocSTm [1]; DocSTm 5 µM + 100 µM peptide): 43.3 ± 0.1 °C; Tm (DocSTm [1]; DocSTm 5 µM + 100 µM peptide, replicate 1): 43.2 °C; Tm (DocSTm [1]; DocSTm 5 µM + 100 µM peptide, replicate 2): 43.2 °C; Tm (DocSTm [1]; DocSTm 5 µM + 100 µM peptide, replicate 3): 43.4 °C; binding to DocSTm by SPR (in words) (DocSTm [2]; SPR): Affinity was too weak to be determined by SPR; also recorded: no measurable affinities could be obtained by SPR

From paper PMC9207808 (ACS Chemical Biology, 2022)
